{"source": "patent US9751853B2", "about": "“Solid forms of 3-(5-amino-2-methyl-4-oxo-4H-quinazolin-3-yl)-piperidine-2,6-dione, and their pharmaceutical compositions and uses” (Celgene Corporation, priority 2011, dated 2017)", "type_in_all_cases": "physicochemical", "key": {"[1]": {"test": "Dynamic Vapor Sorption (moisture sorption)", "experimental": "Dynamic Vapor Sorption (DVS): Hygroscopicity was determined on a Surface Measurement Systems DVS. Typically, a sample of about 2-10 mg was loaded into the DVS instrument sample pan. The sample was analyzed on a DVS automated sorption analyzer at room temperature. The relative humidity was increased from 0 to 95% RH at 10% RH step, then at 95% RH. The relative humidity was then decreased in a similar manner to accomplish a full adsorption/desorption cycle."}, "[2]": {"test": "Solvent/anti-solvent recrystallization, solid form by XRPD", "settings": "MeCN/H2O, ratio 1:5", "experimental": "Solvent/Anti-Solvent Recrystallization: The selected solvent (MeCN/water) was saturated with Compound A hydrochloride at room temperature. Once the solids were completely dissolved, an anti-solvent (acetone or IPA) was added into the solution. The mixture was stirred at room temperature overnight. If no precipitation occurred, the vial was further cooled by placing into a refrigerator (about 0-5° C.). The solids resulting from the recrystallization were filtered and air-dried.\nX-ray Powder Diffraction (XRPD): XRPD analysis was conducted on a Thermo ARL X'TRA™ X-ray powder diffractometer using Cu Kα radiation at 1.54 Å. The instrument was equipped with a fine focus X-ray tube. The voltage and amperage of X-ray generator were set at 45 kV and 40 mA, respectively. The divergence slices were set at 4 mm and 2 mm and the measuring slices were set at 0.5 mm and 0.2 mm. Diffracted radiation was detected by a peltier-cooled Si(Li) solid-state detector. A theta-two theta continuous scan at 2.40°/min (0.5 sec/0.02° step) from 1.5°2θ to 40°2θ was used. A sintered alumina standard was used to check the peak position. In general, positions of XRPD peaks are expected to individually vary on a measurement-by-measurement basis by about +0.2°2θ. […]"}, "Solubility by HPLC": {"test": "Solubility by HPLC", "settings": "thermodynamic from solid, room temperature", "experimental": "Solubility by HPLC: Solubility of Form A in selected aqueous and organic solvents was determined by mixing solid with solvents at room temperature. The samples were filtered after 24 hr of agitation and quantified by an HPLC method, except for DMSO, for which the solubility was measured after 1 hr of agitation."}, "[3]": {"test": "Evaporation experiments, solid form by XRPD", "experimental": "(§1) Equilibration/Slurry and Evaporation: Equilibration and evaporation experiments were carried out by adding an excess of Compound A hydrochloride to about 2 mL of a test solvent. The resulting mixture was agitated for at least 24 hrs at about 25° C. or about 50° C. Upon reaching equilibrium, the saturated solution was removed and allowed to evaporate slowly in an open vial under nitrogen at about 25° C. and about 50° C., respectively. The solids resulting from the equilibration were filtered and dried in the air.\n(§2) X-ray Powder Diffraction (XRPD): XRPD analysis was conducted on a Thermo ARL X'TRA™ X-ray powder diffractometer using Cu Kα radiation at 1.54 Å. The instrument was equipped with a fine focus X-ray tube. The voltage and amperage of X-ray generator were set at 45 kV and 40 mA, respectively. The divergence slices were set at 4 mm and 2 mm and the measuring slices were set at 0.5 mm and 0.2 mm. Diffracted radiation was detected by a peltier-cooled Si(Li) solid-state detector. A theta-two theta continuous scan at 2.40°/min (0.5 sec/0.02° step) from 1.5°2θ to 40°2θ was used. A sintered alumina standard was used to check the peak position. In general, positions of XRPD peaks are expected to individually vary on a measurement-by-measurement basis by about +0.2°2θ. In general, as understood in the art, two XRPD patterns match one another if the characteristic peaks of the first pattern are located at approximately the same positions as the characteristic peaks of the second pattern. As understood in the art, determining whether two XRPD patterns match or whether individual peaks in two XRPD patterns match may require consideration of individual variables and parameters such as, but not limited to, preferred orientation, phase impurities, degree of crystallinity, particle size, variation in diffractometer instrument setup, variation in XRPD data collection parameters, and/or variation in XRPD data processing, among others. The determination of whether two patterns match may be performed by eye and/or by computer analysis."}, "[4]": {"test": "Equilibration/slurry experiments, solid form by XRPD", "experimental": "as §1, §2"}}, "note": "“Also recorded” adds a separate entry of the source.", "data": [{"compound": "Cc1nc2cccc(N)c2c(=O)n1C1CCC(=O)NC1=O.Cl", "note": "(centres unmarked) [Form A1, 3-(5-amino-2-methyl-4-oxo-4H-quinazolin-3-yl)-piperidine-2,6-dione hydrochloride]", "values": [{"measurement": "hygroscopicity", "setting": "[1]; DVS 0 to 95% RH", "result": "non-hygroscopic"}, {"measurement": "XRPD after full adsorption/desorption cycle", "setting": "[1]; after DVS cycle", "result": "unchanged"}, {"measurement": "mass change relative to the dry mass", "setting": "[1]; relative humidity increased from 0 to 95%", "result": 0.15, "unit": "%"}, {"measurement": "XRPD Result after recrystallization", "setting": "[2]; antisolvent Acetone", "result": "Form A1"}, {"measurement": "XRPD Result after recrystallization", "setting": "[2]; antisolvent IPA, hydrochloride", "result": "partial salt dissociation; also recorded: Form Al + Form A"}, {"measurement": "solubility at 24 h", "setting": "Solubility by HPLC; aqueous buffer, Acetate buffer (pH 4.0)", "result": 310, "unit": "µg/mL"}, {"measurement": "solubility at 24 h", "setting": "Solubility by HPLC; aqueous buffer, Phosphate buffer (pH 6.8)", "result": 30, "unit": "µg/mL"}, {"measurement": "solubility at 24 h", "setting": "Solubility by HPLC; organic solvent or mixture, Acetone", "result": 2550, "unit": "µg/mL"}, {"measurement": "solubility at 24 h", "setting": "Solubility by HPLC; organic solvent or mixture, Acetonitrile (AcCN)", "result": 20, "unit": "µg/mL"}, {"measurement": "solubility at 1 h", "setting": "Solubility by HPLC; organic solvent or mixture, Dimethyl Sulfoxide (DMSO), 1 hr of agitation", "result": 21900, "unit": "µg/mL"}, {"measurement": "solubility at 24 h", "setting": "Solubility by HPLC; organic solvent or mixture, Ethyl acetate (EtOAc)", "result": "< 1", "unit": "µg/mL"}, {"measurement": "solubility at 24 h", "setting": "Solubility by HPLC; organic solvent or mixture, Heptane", "result": "< 1", "unit": "µg/mL"}, {"measurement": "solubility at 24 h", "setting": "Solubility by HPLC; organic solvent or mixture, Isopropanol (iPrOH)", "result": 20, "unit": "µg/mL"}, {"measurement": "solubility at 24 h", "setting": "Solubility by HPLC; organic solvent or mixture, Methanol (MeOH)", "result": 270, "unit": "µg/mL"}, {"measurement": "solubility at 24 h", "setting": "Solubility by HPLC; organic solvent or mixture, Tetrahydrofuran (THF)", "result": "< 5", "unit": "µg/mL"}, {"measurement": "solubility at 24 h", "setting": "Solubility by HPLC; organic solvent or mixture, Toluene", "result": "< 5", "unit": "µg/mL"}, {"measurement": "solubility at 24 h", "setting": "Solubility by HPLC; saline or isotonic, 0.9% NaCl", "result": 1900, "unit": "µg/mL"}, {"measurement": "solubility at 24 h", "setting": "Solubility by HPLC; simulated gastric fluid, 0.1N HCl", "result": 5340, "unit": "µg/mL"}, {"measurement": "solubility at 24 h", "setting": "Solubility by HPLC; Water", "result": 1710, "unit": "µg/mL"}, {"measurement": "XRPD Result after evaporation", "setting": "[3]; evaporation at 50° C., Acetonitrile/Water (1:1)", "result": "Form A1"}, {"measurement": "XRPD Result after evaporation", "setting": "[3]; evaporation at 50° C., Ethanol/Water (1:1)", "result": "Form A1"}, {"measurement": "XRPD Result after evaporation", "setting": "[3]; evaporation at 50° C., Methanol", "result": "Form A1"}, {"measurement": "XRPD Result after evaporation", "setting": "[3]; evaporation at 50° C., Tetrahydrofuran/Water (1:1), hydrochloride", "result": "Amorphous"}, {"measurement": "XRPD Result after evaporation", "setting": "[3]; evaporation at 50° C., Water", "result": "Form A1"}, {"measurement": "XRPD Result after evaporation", "setting": "[3]; evaporation at room temperature, Acetonitrile/Water (1:1)", "result": "Form A1"}, {"measurement": "XRPD Result after evaporation", "setting": "[3]; evaporation at room temperature, Ethanol/Water (1:1)", "result": "Form A1"}, {"measurement": "XRPD Result after evaporation", "setting": "[3]; evaporation at room temperature, Methanol, hydrochloride", "result": "Partial or complete salt dissociation; also recorded: Form A + Form A1"}, {"measurement": "XRPD Result after evaporation", "setting": "[3]; evaporation at room temperature, THF", "result": "Partial or complete salt dissociation"}, {"measurement": "XRPD Result after evaporation", "setting": "[3]; evaporation at room temperature, Tetrahydrofuran/Water (1:1), hydrochloride", "result": "Partial or complete salt dissociation; also recorded: Form A + Form A1"}, {"measurement": "XRPD Result after evaporation", "setting": "[3]; evaporation at room temperature, Water", "result": "Form A1"}, {"measurement": "XRPD Result after equilibration", "setting": "[4]; slurry at 50° C., 2-Propanol", "result": "Form A1"}, {"measurement": "XRPD Result after equilibration", "setting": "[4]; slurry at 50° C., Acetone", "result": "Form A1"}, {"measurement": "XRPD Result after equilibration", "setting": "[4]; slurry at 50° C., Acetonitrile", "result": "Form A1"}, {"measurement": "XRPD Result after equilibration", "setting": "[4]; slurry at 50° C., Acetonitrile/Water (1:1)", "result": "Form A + Form A1"}, {"measurement": "XRPD Result after equilibration", "setting": "[4]; slurry at 50° C., Ethanol", "result": "Form A1"}, {"measurement": "XRPD Result after equilibration", "setting": "[4]; slurry at 50° C., Ethanol/Water (1:1)", "result": "Form A + Form A1"}, {"measurement": "XRPD Result after equilibration", "setting": "[4]; slurry at 50° C., Ethyl acetate", "result": "Form A1"}, {"measurement": "XRPD Result after equilibration", "setting": "[4]; slurry at 50° C., Heptane", "result": "Form A1"}, {"measurement": "XRPD Result after equilibration", "setting": "[4]; slurry at 50° C., Methanol", "result": "Form A1"}, {"measurement": "XRPD Result after equilibration", "setting": "[4]; slurry at 50° C., Methyl ethyl ketone", "result": "Form A1"}, {"measurement": "XRPD Result after equilibration", "setting": "[4]; slurry at 50° C., Tetrahydrofuran", "result": "Form A1"}, {"measurement": "XRPD Result after equilibration", "setting": "[4]; slurry at 50° C., Tetrahydrofuran/Water (1:1)", "result": "Form A1"}, {"measurement": "XRPD Result after equilibration", "setting": "[4]; slurry at 50° C., Toluene", "result": "Form A1"}, {"measurement": "XRPD Result after equilibration", "setting": "[4]; slurry at 50° C., Water", "result": "Form A + Form A1"}, {"measurement": "XRPD Result after equilibration", "setting": "[4]; slurry at 50° C., n-Butanol", "result": "Form A1"}, {"measurement": "XRPD Result after equilibration", "setting": "[4]; slurry at room temperature, 2-Propanol", "result": "Form A1"}, {"measurement": "XRPD Result after equilibration", "setting": "[4]; slurry at room temperature, Acetone", "result": "Form A1"}, {"measurement": "XRPD Result after equilibration", "setting": "[4]; slurry at room temperature, Acetonitrile", "result": "Form A1"}, {"measurement": "XRPD Result after equilibration", "setting": "[4]; slurry at room temperature, Acetonitrile/Water (1:1)", "result": "Form A + Form A1"}, {"measurement": "XRPD Result after equilibration", "setting": "[4]; slurry at room temperature, Ethanol", "result": "Form A1"}, {"measurement": "XRPD Result after equilibration", "setting": "[4]; slurry at room temperature, Ethanol/Water (1:1)", "result": "Form A + Form A1"}, {"measurement": "XRPD Result after equilibration", "setting": "[4]; slurry at room temperature, Ethyl acetate", "result": "Form A1"}, {"measurement": "XRPD Result after equilibration", "setting": "[4]; slurry at room temperature, Heptane", "result": "Form A1"}, {"measurement": "XRPD Result after equilibration", "setting": "[4]; slurry at room temperature, Methanol", "result": "Form A1"}, {"measurement": "XRPD Result after equilibration", "setting": "[4]; slurry at room temperature, Methyl ethyl ketone", "result": "Form A1"}, {"measurement": "XRPD Result after equilibration", "setting": "[4]; slurry at room temperature, Methyl t-butyl ether", "result": "Form A1"}, {"measurement": "XRPD Result after equilibration", "setting": "[4]; slurry at room temperature, Methylene chloride", "result": "Form A1"}, {"measurement": "XRPD Result after equilibration", "setting": "[4]; slurry at room temperature, Tetrahydrofuran", "result": "Form A1"}, {"measurement": "XRPD Result after equilibration", "setting": "[4]; slurry at room temperature, Tetrahydrofuran/Water (1:1)", "result": "Form A + Form A1"}, {"measurement": "XRPD Result after equilibration", "setting": "[4]; slurry at room temperature, Toluene", "result": "Form A1"}, {"measurement": "XRPD Result after equilibration", "setting": "[4]; slurry at room temperature, Water", "result": "Form A + Form A1"}, {"measurement": "XRPD Result after equilibration", "setting": "[4]; slurry at room temperature, n-Butanol", "result": "Form A1"}]}]}
